In patent US20260000624A1, “IONIZABLE LIPID CONTAINING BIODEGRADABLE DISULFIDE BOND AND LIPID NANOPARTICLES COMPRISING SAME” (ST PHARM CO., LTD., priority 2022, published 2026):

How the values were obtained:
[1] = test system: hepatocytes (HeLa); experiment: GFP mRNA delivery, fluorescence intensity of lysed cells; assay type: cell-based; conditions: GFP mRNA LNP 0.1 μg/well, 24 hours, FIG. 4
Experimental: The test was conducted by delivering GFP mRNA molecules into hepatocytes (HeLa) using each lipid nanoparticle synthesized with various amine headgroups (Compound 1 to Compound 5, Compound 11, and Compound 12). The expression of the gene was confirmed by measuring the […] intensity.
Specifically, lipid nanoparticles encapsulated with 100 ng GFP mRNA (SEQ ID NO: 6) at a concentration of 0.1 μg/well (based on mRNA concentration) were treated into the hepatocyte line (Nexel, Korea) seeded in 96-well plate at 1×10^5 cells/well. After 24 hours, the cells were treated with 100 μl/well of cell lysis buffer (Thermofischer, US) and left at room temperature for 10 minutes, and then the fluorescence intensity of the lysed cells was measured using an Infinite M200 plate reader (Tecan, USA) (FIG. 4).

[2] = test system: HeLa cells (HeLa-Luc) expressing luciferase; experiment: Luc siRNA delivery, luminescence intensity in luciferase-expressing HeLa cells; assay type: cell-based; conditions: Luc siRNA LNP 5 nM/well, 24 hours, FIG. 3
Experimental: The test was conducted by delivering siRNA molecules, which inhibit the expression of luciferase enzyme, into engineered HeLa cells (HeLa-Luc) expressing luciferase using each lipid nanoparticle synthesized with various amine headgroups (Compound 1 to Compound 5, Compound 11, and Compound 12). The expression of the gene was confirmed by measuring the luminescence intensity.
Specifically, lipid nanoparticles encapsulated with Luc siRNAs (SEQ ID NOs: 4 and 5) at a concentration of 5 nM/well (based on siRNA concentration) were treated into the Hella cell line (Nexel, Korea) seeded in 96-well plate at […]. After 24 hours, the cells were treated with 100 μl/well of Bright-Glo™ luciferase assay solution (promega, USA) and left at room temperature for 10 minutes, and then the luminescence intensity of the lysed cells was measured using an Infinite M200 plate reader (Tecan, USA) (FIG. 3).

[3] = test system: C57BL/6 mice; experiment: Luc mRNA delivery via intramuscular injection, bioluminescence by IVIS; assay type: in vivo; conditions: 0.1 mg/kg Luc mRNA, 3 hours, SM-102 control, FIG. 9
Experimental: Luc mRNA (SEQ ID NO: 1) was delivered to mice by intramuscular injection, and gene expression was confirmed by bioluminescence.
Specifically, lipid nanoparticles (221-SS 3 tail, 221-SS 4 tail alone and mixed) containing Luc mRNA were manufactured, as described above, followed by intramuscular injection into C57BL/6 mice at a concentration of 0.1 mg/kg (based on mRNA). After 3 hours, luciferin 0.25 mg/kg was administered intraperitoneally and bioluminescence was confirmed by IVIS (PerkinElmer, USA).

[4] = test system: C57BL/6 mice; experiment: Luc mRNA delivery via intravenous injection, bioluminescence by IVIS; assay type: in vivo; conditions: 0.1 mg/kg Luc mRNA, 3 hours, SM-102 control, FIG. 7
Experimental: To investigate the mRNA delivery of the 221-SS lipid nanoparticles, luciferase mRNA was delivered into mice, and gene expression was confirmed by bioluminescence.
Specifically, 221-SS 3 tail lipid nanoparticles encapsulated with Luc mRNA (SEQ ID NO: 1) were manufactured by the method of Example 2-3 above. The prepared lipid nanoparticles were injected intravenously into 7-week-old C57BL/6 mice at a dose of 0.1 mg/kg (based on mRNA), and 3 hours later, luciferin 0.25 mg/kg was administered intraperitoneally and bioluminescence was confirmed by IVIS (PerkinElmer, USA).
Next, in order to confirm the effect of the number of disulfide bond chains (tails), an in vivo assay using lipid nanoparticles encapsulated with 2 μg (0.1 mg/kg) of Luc mRNA (SEQ ID NO: 1) containing either 221-SS 3-tail (Compound 5) or 221-SS 4-tail (Compound 6) was performed via intravenous injection. The same experiment was also performed using lipid nanoparticles manufactured from a 1:1 mixture of 221-SS 3 chain and 221-SS 4 chain, wherein SM-102, FDA-approved ionizable lipid, was used as a control group.
Specifically, the respective lipid nanoparticles were injected intravenously into 7-week-old C57BL/6 mice at a dose of 0.1 mg/kg (based on mRNA), and 3 hours later, luciferin 0.25 mg/kg was administered intraperitoneally and bioluminescence was confirmed by IVIS (PerkinElmer, USA).

| SMILES | fluorescence intensity (GFP mRNA delivery) [1] | luminescence intensity (Luc siRNA delivery) [2] | bioluminescence according to number of chains [3] | bioluminescence according to number of chains [4] |
| --- | --- | --- | --- | --- |
| CCCCCCCCCCCCSSCCN(CCSSCCCCCCCCCCCC)CCN(C)C [Compound 1] | higher efficiency | higher efficiency | – | – |
| CCCCCCCCCCCCSSCCNCCCN(C)CCCN(CCSSCCCCCCCCCCCC)CCSSCCCCCCCCCCCC [Compound 5] | higher efficiency | higher efficiency | superior to the negative control | better effects than the negative control |
| CCCCCCCCCCCCSSCCN(CCCN(C)CCCN(CCSSCCCCCCCCCCCC)CCSSCCCCCCCCCCCC)CCSSCCCCCCCCCCCC [Compound 6] | – | – | superior to the negative control | better effects than the negative control |
